# Activity calls are given as the source filed them. The calls are words filed in the database; no cut-off is given here.
# What was measured:
# Pseudomonas aeruginosa [1] = test: Antibacterial activity against Pseudomonas aeruginosa clinical isolate assessed as inhibition of bacterial growth incubated for 24 hrs; assay type: functional
# Staphylococcus aureus [2] = test: Antibacterial activity against Staphylococcus aureus CMCC(B)26003 assessed as inhibition of bacterial growth incubated for 24 hrs; assay type: functional
# Staphylococcus aureus [3] = test: Antibacterial activity against Staphylococcus aureus CMCC(B)26001 assessed as inhibition of bacterial growth incubated for 24 hrs; assay type: functional
# Enterococcus faecalis [4] = test: Antibacterial activity against Enterococcus faecalis clinical isolate assessed as inhibition of bacterial growth incubated for 24 hrs; assay type: functional
# Streptococcus pyogenes = test: Antibacterial activity against Streptococcus pyogenes ATCC 19615 assessed as inhibition of bacterial growth incubated for 24 hrs; assay type: functional
# Staphylococcus aureus [5] = test: Antibacterial activity against Staphylococcus aureus ATCC 29213 assessed as inhibition of bacterial growth incubated for 24 hrs; assay type: functional
# Enterococcus faecium = test: Antibacterial activity against Enterococcus faecium ATCC 19434 assessed as inhibition of bacterial growth incubated for 24 hrs; assay type: functional
# Staphylococcus aureus [6] = test: Antibacterial activity against Staphylococcus aureus ATCC 25923 assessed as inhibition of bacterial growth incubated for 24 hrs; assay type: functional
# Klebsiella pneumoniae = test: Antibacterial activity against Klebsiella pneumoniae clinical isolate assessed as inhibition of bacterial growth incubated for 24 hrs; assay type: functional
# Staphylococcus aureus [7] = test: Antibacterial activity against methicillin resistant Staphylococcus aureus clinical isolate assessed as inhibition of bacterial growth incubated for 24 hrs; assay type: functional
# Pseudomonas aeruginosa [8] = test: Antibacterial activity against Pseudomonas aeruginosa ATCC 27853 assessed as inhibition of bacterial growth incubated for 24 hrs; assay type: functional
# Staphylococcus aureus [9] = test: Antibacterial activity against Staphylococcus aureus ATCC 12600 assessed as inhibition of bacterial growth incubated for 24 hrs; assay type: functional
# Escherichia coli [10] = test: Antibacterial activity against Escherichia coli clinical isolate assessed as inhibition of bacterial growth incubated for 24 hrs; assay type: functional
# Enterococcus faecalis [11] = test: Antibacterial activity against vancomycin-resistant Enterococcus faecalis clinical isolate p1-2007226001 assessed as inhibition of bacterial growth incubated for 24 hrs; assay type: functional
# [12] = test system: Staphylococcus epidermidis; test: Antibacterial activity against Staphylococcus epidermidis ATCC 12228 assessed as inhibition of bacterial growth incubated for 24 hrs; assay type: functional
# Staphylococcus aureus [13] = test: Antibacterial activity against methicillin-resistant Staphylococcus aureus ATCC 43300 assessed as inhibition of bacterial growth incubated for 24 hrs; assay type: functional
# Enterococcus faecalis [14] = test: Antibacterial activity against vancomycin-resistant Enterococcus faecalis clinical isolate p1-2007225053 assessed as inhibition of bacterial growth incubated for 24 hrs; assay type: functional
# Streptococcus pneumoniae = test: Antibacterial activity against Streptococcus pneumoniae ATCC 6305 assessed as inhibition of bacterial growth incubated for 24 hrs; assay type: functional
# Staphylococcus aureus [15] = test: Antibacterial activity against Staphylococcus aureus clinical isolate assessed as inhibition of bacterial growth incubated for 24 hrs; assay type: functional
# Escherichia coli [16] = test: Antibacterial activity against Escherichia coli ATCC 25922 assessed as inhibition of bacterial growth incubated for 24 hrs; assay type: functional
# Acinetobacter baumannii = test: Antibacterial activity against Acinetobacter baumannii clinical isolate assessed as inhibition of bacterial growth incubated for 24 hrs; assay type: functional
# Erythrocyte = test: Hemolytic activity in human Red blood cells assessed as concentration required for 5% hemolysis measured after 1.5 hrs by absorbance based assay; assay type: toxicity, cell-based
# Staphylococcus aureus [17] = test: Antibacterial activity against Staphylococcus aureus ATCC 6538 assessed as inhibition of bacterial growth incubated for 24 hrs; assay type: functional
# Staphylococcus aureus [18] = test: Bactericidal activity against methicillin-resistant Staphylococcus aureus assessed as increase in fluorescence intensity at 2 ug/ml incubated for 6 hrs by PI staining based fluorescence analysis; assay type: functional, organism-based; conditions: dose 2.0 µg/ml
# Cell membrane [19] = test: Induction of cell membrane permeability in methicillin-resistant Staphylococcus aureus assessed as increase in fluorescence intensity at 1 ug/ml incubated for 6 hrs by PI staining based fluorescence analysis; assay type: cell membranes; conditions: dose 1.0 µg/ml
# Cell membrane [20] = test: Induction of cell membrane depolarization in Pseudomonas aeruginosa assessed as increase in fluorescence intensity at 1 ug/ml measured for 30 mins by DiSC35 dye based fluorescence analysis; assay type: cell membranes; conditions: dose 1.0 µg/ml
# Pseudomonas aeruginosa [21] = test: Induction of intracellular ROS generation in Pseudomonas aeruginosa assessed as increase in fluorescence intensity at 2 ug/ml incubated for 6 hrs in presence of N-acetyl-L-cysteine by DCFH-DA dye based fluorescence analysis; assay type: functional, organism-based; conditions: dose 2.0 µg/ml
# Staphylococcus aureus [22] = test: Antibiofilm activity in methicillin resistant Staphylococcus aureus assessed as biofilm eradication at 1 to 2 ug/ml measured after 24 hrs by crystal violet staining based analysis; assay type: functional, organism-based; conditions: dose 1-2 µg/ml
# Pseudomonas aeruginosa [23] = test: Induction of morphological changes in Pseudomonas aeruginosa at 2 ug/ml incubated for 3 hrs by SEM analysis; assay type: functional, organism-based; conditions: dose 2.0 µg/ml
# Pseudomonas aeruginosa [24] = test: Induction of intracellular ROS generation in Pseudomonas aeruginosa assessed as increase in fluorescence intensity at 2 ug/ml incubated for 6 hrs by DCFH-DA dye based fluorescence analysis; assay type: functional, organism-based; conditions: dose 2.0 µg/ml
# Cell membrane [25] = test: Induction of cell membrane permeability in Pseudomonas aeruginosa assessed as increase in fluorescence intensity at 1 ug/ml incubated for 6 hrs by PI staining based fluorescence analysis; assay type: cell membranes; conditions: dose 1.0 µg/ml
# Cell membrane [26] = test: Induction of cell membrane depolarization in methicillin-resistant Staphylococcus aureus assessed as increase in fluorescence intensity at 1 ug/ml measured for 30 mins by DiSC35 dye based fluorescence analysis; assay type: cell membranes; conditions: dose 1.0 µg/ml
# Staphylococcus aureus [27] = test: Resistance development in ciprofloxacin-treated methicillin resistant Staphylococcus aureus assessed as increase in MIC measured after 15th generation; assay type: functional, organism-based
# Pseudomonas aeruginosa [28] = test: Resistance development in ciprofloxacin-treated Pseudomonas aeruginosa assessed as increase in MIC measured after 15th generation; assay type: functional, organism-based
# Pseudomonas aeruginosa [29] = test: Antibiofilm activity in Pseudomonas aeruginosa assessed as biofilm eradication at 1 to 2 ug/ml measured after 24 hrs by crystal violet staining based analysis; assay type: functional, organism-based; conditions: dose 1-2 µg/ml
# Pseudomonas aeruginosa [30] = test: Bactericidal activity against Pseudomonas aeruginosa assessed as increase in fluorescence intensity at 2 ug/ml incubated for 6 hrs by PI staining based fluorescence analysis; assay type: functional, organism-based; conditions: dose 2.0 µg/ml
# Staphylococcus aureus [31] = test: Resistance development in ciprofloxacin-treated Staphylococcus aureus ATCC 6538 assessed as increase in MIC measured after 15th generation; assay type: functional, organism-based
# Pseudomonas aeruginosa [32] = test: Resistance development in ciprofloxacin-treated Pseudomonas aeruginosa ATCC 27853 assessed as increase in MIC measured after 15th generation; assay type: functional, organism-based
# Staphylococcus aureus [33] = test: Induction of morphological changes in methicillin resistant Staphylococcus aureus at 2 ug/ml incubated for 3 hrs by SEM analysis; assay type: functional, organism-based; conditions: dose 2.0 µg/ml
SMILES,MIC (Pseudomonas aeruginosa [1]),MIC (Enterococcus faecalis [4]),MIC (Streptococcus pyogenes),MIC (Staphylococcus aureus [5]),MIC (Enterococcus faecium),MIC (Staphylococcus aureus [6]),MIC (Klebsiella pneumoniae),MIC (Staphylococcus aureus [7]),MIC (Pseudomonas aeruginosa [8]),MIC (Escherichia coli [10]),MIC [12],MIC (Streptococcus pneumoniae),MIC (Staphylococcus aureus [15]),MIC (Escherichia coli [16]),MIC (Acinetobacter baumannii),MIC (Staphylococcus aureus [17]),also measured
N#CCc1cc2c(cc1F)c(=O)c(C(=O)O)cn2Cc1ccc(F)cc1F,0.5 µg/mL,256 µg/mL,0.25 µg/mL,0.5 µg/mL,128 µg/mL,0.25 µg/mL,8 µg/mL,256 µg/mL,0.5 µg/mL,0.5 µg/mL,64 µg/mL,32 µg/mL,256 µg/mL,0.25 µg/mL,4 µg/mL,32 µg/mL,MIC (Staphylococcus aureus [2]): 2 µg/mL; MIC (Staphylococcus aureus [3]): 2 µg/mL; MIC (Staphylococcus aureus [9]): 64 µg/mL; MIC (Enterococcus faecalis [11]): 64 µg/mL; MIC (Staphylococcus aureus [13]): 128 µg/mL; MIC (Enterococcus faecalis [14]): 64 µg/mL; HC5 (Erythrocyte): 60 µg/mL
O=C(O)c1cn(C2CC2)c2cc(N3CCNCC3)c(F)cc2c1=O [CIPROFLOXACIN],–,–,16 µg/mL,0.5 µg/mL,2 µg/mL,1 µg/mL,–,–,–,–,0.125 µg/mL,0.125 µg/mL,–,–,–,0.5 µg/mL,Activity (Staphylococcus aureus [18]): Active; Activity (Cell membrane [19]): inactive; Activity (Cell membrane [20]): inactive; Activity (Pseudomonas aeruginosa [21]): inactive; Activity (Staphylococcus aureus [22]): inactive; Activity (Pseudomonas aeruginosa [23]): Active; Activity (Pseudomonas aeruginosa [24]): Active; Activity (Cell membrane [25]): inactive; Activity (Cell membrane [26]): inactive; Activity (Staphylococcus aureus [27]): Active; Activity (Pseudomonas aeruginosa [28]): Active; Activity (Pseudomonas aeruginosa [29]): inactive; Activity (Pseudomonas aeruginosa [30]): Active; Activity (Staphylococcus aureus [31]): Active; Activity (Pseudomonas aeruginosa [32]): Active; Activity (Staphylococcus aureus [33]): Active
N#CCc1cc2c(cc1F)c(=O)c(C(=O)O)cn2Cc1ccccc1,0.25 µg/mL,4 µg/mL,–,0.5 µg/mL,–,0.25 µg/mL,0.5 µg/mL,8 µg/mL,1 µg/mL,2 µg/mL,–,–,256 µg/mL,0.25 µg/mL,256 µg/mL,–,–
N#CCc1cc2c(cc1F)c(=O)c(C(=O)O)cn2Cc1ccc(Cl)cc1Cl,0.5 µg/mL,256 µg/mL,–,2 µg/mL,–,0.5 µg/mL,16 µg/mL,256 µg/mL,32 µg/mL,1 µg/mL,–,–,256 µg/mL,1 µg/mL,8 µg/mL,–,–
N#CCc1cc2c(cc1F)c(=O)c(C(=O)O)cn2Cc1ccc([N+](=O)[O-])cc1,4 µg/mL,8 µg/mL,–,256 µg/mL,–,32 µg/mL,8 µg/mL,128 µg/mL,32 µg/mL,256 µg/mL,–,–,256 µg/mL,128 µg/mL,256 µg/mL,–,–

# From ChEMBL document CHEMBL5506059, “Cyanomethylquinolones as a New Class of Potential Multitargeting Broad-Spectrum Antibacterial Agents” (J Med Chem, 2024)
